Data as given in patent US6525001B1, “Substituted pyrimidine and pyridine herbicides” (Mid-American Commercialization Corporation, priority 1997, dated 2003).

Legend:
Type in all cases: in vivo
[1] = system: common poppy (Papaver rhoeas); assay: Test D; parameters: key: 0 is no effect; 100 is complete control; settings: PREEMERGENCE
[2] = system: sugar beet (Beta vulgaris); assay: Test D; parameters: key: 0 is no effect; 100 is complete control; settings: PREEMERGENCE
[3] = system: black nightshade (Solanum nigra); assay: Test D; parameters: key: 0 is no effect; 100 is complete control; settings: PREEMERGENCE
[4] = system: windgrass (Apera spica-venti); assay: Test D; parameters: key: 0 is no effect; 100 is complete control; settings: PREEMERGENCE
[5] = system: wild buckwheat (Polygonum convolvulus); assay: Test D; settings: PREEMERGENCE
[6] = system: field violet (Viola arvensis); assay: Test D; settings: PREEMERGENCE
[7] = system: barnyardgrass (Echinochloa crus-galli); assay: Test E pre-/postemergence/post directed; settings: PREEMERGENCE
Procedure, shortened: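 Injury was scored visually on a 0 to 100 scale (100 = complete control) 13 to 21 days after treatment of greenhouse-grown plants. Test chemicals, in a surfactant-containing non-phytotoxic solvent, were sprayed onto soil within a day of planting, onto plants at the two to four leaf stage, or directed at the base of the plants.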

[8] = system: ivyleaf speedwell (Veronica hederaefolia); assay: Test D; parameters: key: 0 is no effect; 100 is complete control; settings: PREEMERGENCE
[9] = system: galium 2 (Galium aparine); assay: Test D; parameters: key: 0 is no effect; 100 is complete control; settings: PREEMERGENCE
[10] = system: green foxtail (Setaria viridis); assay: Test D; parameters: key: 0 is no effect; 100 is complete control; settings: PREEMERGENCE
[11] = system: spring wheat (Triticum aestivum); assay: Test D; parameters: key to Plant response rating, Spring Wheat: 0 is no effect; settings: PREEMERGENCE
[12] = system: blackgrass (Alopecurus myosuroides); assay: Test D; settings: PREEMERGENCE
kochia (Kochia scoparia) = assay: Test D; parameters: key: 0 is no effect; 10 is complete control; settings: POSTEMERGENCE
Description: (§1) Compounds evaluated in this test were formulated in a non-phytotoxic solvent mixture which included a surfactant and applied to plants that were in the 1- to 4-leaf stage (postemergence application). A mixture of sandy loam soil and greenhouse potting mix in a 60:40 ratio was used for the postemergence test.
(§2) Plantings of these crops and weed species were adjusted to produce plants of appropriate size for the postemergence test. All plant species were grown using normal greenhouse practices. Crop and weed species include alfalfa (Medicago sativa), annual bluegrass (Poa annua), blackgrass (Alopecurus myosuroides), black nightshade (Solanum nigra), chickweed (Stellaria media), common poppy (Papaver rhoeas), deadnettle (Lamium amplexicaule), downy brome (Bromus tectorum), field violet (Viola arvensis), galium 2 (Galium aparine), green foxtail (Setaria viridis), Italian ryegrass (Lolium multiflorum), jointed goatgrass (Aegilops cylindrica), kochia (Kochia scoparia), lambsquarters (Chenopodium album), lentil (Lens culinaris), littleseed canarygrass (Phalaris minor), pea (Pisum sativum), potato (Solanum tuberosum), rape (Brassica napus), redroot pigweed (Amaranthus retroflexus), Russian thistle (Salsola kali), scentless chamomile (Matricaria inodora), sorghum (Sorghum vulgare), spring barley (Hordeum vulgare), sugar beet (Beta vulgaris), sunflower (Helianthus annuus), ivyleaf speedwell (Veronica hederaefolia), spring wheat (Triticum aestivum), winter wheat (Triticum aestivum), wild buckwheat (Polygonum convolvulus), wild mustard (Sinapis arvensis), wild oat (Avena fatua), windgrass (Apera spica-venti) and winter barley (Hordeum vulgare).
(§3) Treated plants and untreated controls were maintained in a greenhouse for approximately 21 to 28 days, after which all treated plants were compared to untreated controls and visually evaluated. Plant response ratings, summarized in Table D, are based upon a 0 to 100 scale where 0 is no effect and 100 is complete control. A dash response (−) means no test result.

[13] = system: redroot pigweed (Amaranthus retroflexus); assay: Test D; parameters: key: 0 is no effect; 10 is complete control; settings: POSTEMERGENCE
Description: as §1, §2, §3

[14] = system: galium 2 (Galium aparine); assay: Test D; parameters: key: 0 is no effect; 10 is complete control; settings: POSTEMERGENCE
Description: as §1, §2, §3

[15] = system: wild buckwheat (Polygonum convolvulus); assay: Test D; parameters: key: 0 is no effect; 10 is complete control; settings: POSTEMERGENCE
Description: as §1, §2, §3

## Cc1cnc(-c2ccc(C(F)(F)F)cc2)nc1Cc1cccc(C(F)(F)F)c1 [Example 1, 5-methyl-2-[4-(trifluoromethyl)phenyl]-4-[[3-(trifluoromethyl)phenyl]methyl]pyrimidine]
[1]; Rate 31 g/ha
  Plant response rating, Common poppy: 80
[1]; Rate 62 g/ha
  Plant response rating, Common poppy: 100
[1]; Rate 125 g/ha
  Plant response rating, Common poppy: 100
[1]; Rate 250 g/ha
  Plant response rating, Common poppy: 100
[2]; Rate 31 g/ha
  Plant response rating, Sugar beet: 30
[2]; Rate 62 g/ha
  Plant response rating, Sugar beet: 100
[2]; Rate 125 g/ha
  Plant response rating, Sugar beet: 85
[2]; Rate 250 g/ha
  Plant response rating, Sugar beet: 100
[3]; Rate 31 g/ha
  Plant response rating, Blk nightshade: 55
[3]; Rate 62 g/ha
  Plant response rating, Blk nightshade: 90
[3]; Rate 125 g/ha
  Plant response rating, Blk nightshade: 100
[3]; Rate 250 g/ha
  Plant response rating, Blk nightshade: 100
[4]; Rate 31 g/ha
  Plant response rating, Windgrass: 60
[4]; Rate 62 g/ha
  Plant response rating, Windgrass: 100
[4]; Rate 125 g/ha
  Plant response rating, Windgrass: 100
[4]; Rate 250 g/ha
  Plant response rating, Windgrass: 100
[5]; Rate 31 g/ha
  Plant response rating, Wild buckwheat: 40
[5]; Rate 62 g/ha
  Plant response rating, Wild buckwheat: 80
[5]; Rate 125 g/ha
  Plant response rating, Wild buckwheat: 85
[5]; Rate 250 g/ha
  Plant response rating, Wild buckwheat: 85
[6]; Rate 31 g/ha
  Plant response rating, Field violet: 20
[6]; Rate 62 g/ha
  Plant response rating, Field violet: 70
[6]; Rate 125 g/ha
  Plant response rating, Field violet: 85
[6]; Rate 250 g/ha
  Plant response rating, Field violet: 85
[7]; Rate 32 g/ha
  Plant response rating, Barnyardgrass: 5
[7]; Rate 64 g/ha
  Plant response rating, Barnyardgrass: 70
[7]; Rate 125 g/ha
  Plant response rating, Barnyardgrass: 80
[8]; Rate 31 g/ha
  Plant response rating, Ivyleaf speedwe: 50
[8]; Rate 62 g/ha
  Plant response rating, Ivyleaf speedwe: 100
[8]; Rate 125 g/ha
  Plant response rating, Ivyleaf speedwe: 100
[8]; Rate 250 g/ha
  Plant response rating, Ivyleaf speedwe: 100
[9]; Rate 31 g/ha
  Plant response rating, Galium: 20
[9]; Rate 62 g/ha
  Plant response rating, Galium: 100
[9]; Rate 125 g/ha
  Plant response rating, Galium: 100
[9]; Rate 250 g/ha
  Plant response rating, Galium: 100
[10]; Rate 31 g/ha
  Plant response rating, Green foxtail: 60
[10]; Rate 62 g/ha
  Plant response rating, Green foxtail: 100
[10]; Rate 125 g/ha
  Plant response rating, Green foxtail: 100
[10]; Rate 250 g/ha
  Plant response rating, Green foxtail: 100
[11]; Rate 31 g/ha
  Plant response rating, Spring Wheat: 0
  Plant response rating, Wheat (spring): 10
[11]; Rate 62 g/ha
  Plant response rating, Spring Wheat: 0
  Plant response rating, Wheat (spring): 10
[11]; Rate 125 g/ha
  Plant response rating, Spring Wheat: 0
  Plant response rating, Wheat (spring): 50
[11]; Rate 250 g/ha
  Plant response rating, Wheat (spring): 30
[12]; Rate 31 g/ha
  Plant response rating, Blackgrass: 30
[12]; Rate 62 g/ha
  Plant response rating, Blackgrass: 50
[12]; Rate 125 g/ha
  Plant response rating, Blackgrass: 60
[12]; Rate 250 g/ha
  Plant response rating, Blackgrass: 70
Kochia (Kochia scoparia); Rate 16 g/ha
  Plant response rating, Kochia: 0
Kochia (Kochia scoparia); Rate 31 g/ha
  Plant response rating, Kochia: 60
Kochia (Kochia scoparia); Rate 62 g/ha
  Plant response rating, Kochia: 80
Kochia (Kochia scoparia); Rate 125 g/ha
  Plant response rating, Kochia: 70
[13]; Rate 16 g/ha
  Plant response rating, Redroot pigweed: 0
[13]; Rate 31 g/ha
  Plant response rating, Redroot pigweed: 70
[13]; Rate 62 g/ha
  Plant response rating, Redroot pigweed: 70
[13]; Rate 125 g/ha
  Plant response rating, Redroot pigweed: 50
[14]; Rate 16 g/ha
  Plant response rating, Galium: 0
[14]; Rate 31 g/ha
  Plant response rating, Galium: 60
[14]; Rate 62 g/ha
  Plant response rating, Galium: 70
[14]; Rate 125 g/ha
  Plant response rating, Galium: 70
[15]; Rate 16 g/ha
  Plant response rating, Wild buckwheat: 0
[15]; Rate 31 g/ha
  Plant response rating, Wild buckwheat: 0
[15]; Rate 62 g/ha
  Plant response rating, Wild buckwheat: 0
[15]; Rate 125 g/ha
  Plant response rating, Wild buckwheat: 20
